Consider three molecules from patent US20080058332A1, “2,4,6-Trisubstituted Pyrimidines as Phosphotidylinositol (Pi) 3-Kinase Inhibitors and Their Use in the Treatment of Cancer” (priority 2004, published 2008).

In assay [1] the target is T1, p110α Type Ia human PI3K (Homo sapiens, UniProt P42336).
T1 construct: full length DNA of each of the p110α, p110β and p110δ Type Ia human PI3K p110 isoforms; 6-His; made in house
Put plainly: In vitro enzyme assay (AlphaScreen), inhibition of phosphorylation of PI(4,5)P2 by recombinant Type I PI3K. Format: biochemical. To be noted: DiC8-PI(4,5)P2 40 μM, ATP 4 μM, read-out: IC50 versus p110α Type Ia human PI3K, Test (a). The text has this:
(a) In Vitro Enzyme Assay
The assay used AlphaScreen technology (Gray et al., Analytical Biochemistry, 2003, 313: 234-245) to determine the ability of test compounds to inhibit phosphorylation by recombinant Type I PI3K enzymes of the lipid PI(4,5)P2.
DNA fragments encoding human PI3K catalytic and regulatory subunits were isolated from cDNA libraries using standard molecular biology and PCR cloning techniques. The selected DNA fragments were used to generate baculovirus expression vectors. In particular, full length DNA of each of the p110α, p110β and p110δ Type Ia human PI3K p110 isoforms (EMBL Accession Nos. HSU79143, S67334, Y10055 for p110α, p110β and p110δ respectively) were sub-cloned into a pDEST10 vector (Invitrogen Limited, Fountain drive, Paisley, UK). The vector is a Gateway-adapted version of Fastbac1 containing a 6-His epitope tag. A truncated form of Type Ib human PI3K p110γ isoform corresponding to amino acid residues 144-1102 (EMBL Accession No. X8336A) and the full length human p85α regulatory subunit (EMBL Accession No. HSP13KIN) were also sub-cloned into pFastBac1 vector containing a 6-His epitope tag. The Type Ia p110 constructs were co-expressed with the p85α regulatory subunit. Following expression in the baculovirus system using standard baculovirus expression techniques, expressed proteins were purified using the His epitope tag using standard purification techniques.
DNA corresponding to amino acids 263 to 380 of human Grp1 PH domain was isolated from a cDNA library using standard molecular biology and PCR cloning techniques. […]
Biotinylated-DiC8-PI(3,4,5)P3 (50 nM; Cell Signals Inc., Catalogue No. 107), recombinant purified GST-Grp1 PH protein (2.5 nM) and AlphaScreen Anti-GST donor and acceptor beads (100 ng; Packard Bioscience Limited, Station Road, Pangbourne, Berkshire, UK, Catalogue No. 6760603M) were added and the assay plates were left for about 5 to 20 hours at ambient temperature in the dark. The resultant signals arising from laser light excitation at 680 nm were read using a Packard AlphaQuest instrument. […]
A general note: In Alpha technology, singlet oxygen from a donor bead excites a nearby acceptor bead.

The test system of assay [2] is phosphorylation of Serine 473 in Akt. Put plainly: In vitro phospho-Ser473 Akt assay in MDA-MB-468 cells. Format: cell-based. To be noted: Homo sapiens, 2 hours incubation, read-out: IC50, Test (b), inhibition of phosphorylation of Serine 473 in Akt. The method, then:
(b) In Vitro phospho-Ser473 Akt Assay
This assay determines the ability of test compounds to inhibit phosphorylation of Serine 473 in Akt as assessed using Acumen Explorer technology (Acumen Bioscience Limited), a plate reader that can be used to rapidly quantitate features of images generated by laser-scanning.
A MDA-MB-468 human breast adenocarcinoma cell line (LGC Promochem, Teddington, Middlesex, UK, Catalogue No. HTB-132) was routinely maintained at 37° C. with 5% CO2 up to a confluency of 70-90% in Dulbecco's modified Eagle's growth medium (DMEM; Invitrogen Limited, Paisley, UK Catalogue No. 41966-029) containing 10% heat-inactivated foetal calf serum (FCS; Sigma, Poole, Dorset, UK, Catalogue No. F0392) and 1% L-glutamine (Gibco, Catalogue No. 25030-024).
For the assay, the cells were detached from the culture flask using ‘Accutase’ (Innovative Cell Technologies Inc., San Diego, Calif., USA; Catalogue No. AT104) using standard tissue culture methods and resuspended in media to give 1.7×10^5 cells per ml. […]
All subsequent aspiration and wash steps were carried out using a Tecan 96 well plate washer (aspiration speed 10 mm/sec). […] An aliquot of PBS (50 μl) was added to each well and the plates were sealed with black plate sealers and the fluorescence signal was detected and analysed. […]

The subject of assay [3] is MDA-MB-468 human breast adenocarcinoma cells. Put plainly: In vitro MDA-MB-468 human breast adenocarcinoma proliferation assay. Format: cell-based. To be noted: 48 hours incubation, BrdU incorporation, read-out: IC50, Test (c), inhibition of MDA-MB-468 cell growth. The source says:
(c) In Vitro MDA-MB-468 Human Breast Adenocarcinoma Proliferation Assay
This assay determines the ability of test compounds to inhibit cell proliferation as assessed using Cellomics Arrayscan technology. A MDA-MB-468 human breast adenocarcinoma cell line (LGC Promochem, Catalogue No. HTB-132) was routinely maintained as described in Biological Assay (b) hereinbefore.
For the proliferation assay, the cells were detached from the culture flask using Accutase and seeded into the inner 60 wells of a black Packard 96 well plate at a density of 8000 cells per well in 100 μl of complete growth media. The outer wells contained 100 μl of sterile PBS. The cells were incubated overnight at 37° C. with 5% CO2 to allow them to adhere.
On day 2, the cells were treated with test compounds and incubated for 48 hours at 37° C. with 5% CO2. […]
BrdU incorporation was detected by incubation for 1 hour at ambient temperature with mouse anti-BrdU antibody (50 μl; Caltag, Burlingame, Calif., US; Catalogue No. MD5200) that was diluted 1:40 in PBS containing 1% BSA and 0.05% Tween-20. […] Subsequently, PBS (100 μl) was added to each well and the plates were analysed using a Cellomics array scan to assess total cell number and number of BrdU positive cells.
Fluorescence dose response data obtained with each compound were analysed and the degree of inhibition of MDA-MB-468 cell growth was expressed as an IC50 value.
(Dividing cells build labelled thymidine or BrdU into new DNA.)

SMILES strings stand for the structures.

T1 sequence (P42336 whole entry, canonical isoform): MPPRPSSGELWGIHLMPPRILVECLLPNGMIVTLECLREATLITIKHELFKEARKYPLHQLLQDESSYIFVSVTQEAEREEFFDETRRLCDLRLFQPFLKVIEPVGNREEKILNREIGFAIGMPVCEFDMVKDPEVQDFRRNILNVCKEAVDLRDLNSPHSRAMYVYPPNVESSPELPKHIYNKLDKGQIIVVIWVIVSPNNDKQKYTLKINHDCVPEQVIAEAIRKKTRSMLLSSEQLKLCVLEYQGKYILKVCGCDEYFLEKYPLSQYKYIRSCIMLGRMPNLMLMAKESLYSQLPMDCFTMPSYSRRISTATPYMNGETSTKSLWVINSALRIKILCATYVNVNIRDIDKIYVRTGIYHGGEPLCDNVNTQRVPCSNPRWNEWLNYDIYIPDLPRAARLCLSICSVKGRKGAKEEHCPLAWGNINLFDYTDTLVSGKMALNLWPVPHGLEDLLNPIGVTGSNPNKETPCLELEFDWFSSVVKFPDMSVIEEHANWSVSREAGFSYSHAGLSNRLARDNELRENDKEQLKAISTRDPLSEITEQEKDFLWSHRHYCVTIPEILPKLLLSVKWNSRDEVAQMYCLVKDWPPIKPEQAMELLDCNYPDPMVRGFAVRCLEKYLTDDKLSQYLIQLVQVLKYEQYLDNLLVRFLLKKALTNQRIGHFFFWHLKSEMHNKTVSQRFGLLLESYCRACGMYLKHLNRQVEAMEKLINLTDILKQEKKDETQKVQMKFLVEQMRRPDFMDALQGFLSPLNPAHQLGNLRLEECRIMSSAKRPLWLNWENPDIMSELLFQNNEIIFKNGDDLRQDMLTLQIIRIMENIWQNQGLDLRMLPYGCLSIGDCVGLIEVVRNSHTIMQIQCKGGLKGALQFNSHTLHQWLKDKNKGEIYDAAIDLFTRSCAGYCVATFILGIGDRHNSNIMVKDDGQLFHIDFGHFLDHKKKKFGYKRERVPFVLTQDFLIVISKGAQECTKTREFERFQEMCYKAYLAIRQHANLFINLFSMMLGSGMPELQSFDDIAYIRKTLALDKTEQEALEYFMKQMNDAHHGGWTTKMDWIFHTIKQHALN
T1 sequence (P27986 whole entry partner, canonical isoform): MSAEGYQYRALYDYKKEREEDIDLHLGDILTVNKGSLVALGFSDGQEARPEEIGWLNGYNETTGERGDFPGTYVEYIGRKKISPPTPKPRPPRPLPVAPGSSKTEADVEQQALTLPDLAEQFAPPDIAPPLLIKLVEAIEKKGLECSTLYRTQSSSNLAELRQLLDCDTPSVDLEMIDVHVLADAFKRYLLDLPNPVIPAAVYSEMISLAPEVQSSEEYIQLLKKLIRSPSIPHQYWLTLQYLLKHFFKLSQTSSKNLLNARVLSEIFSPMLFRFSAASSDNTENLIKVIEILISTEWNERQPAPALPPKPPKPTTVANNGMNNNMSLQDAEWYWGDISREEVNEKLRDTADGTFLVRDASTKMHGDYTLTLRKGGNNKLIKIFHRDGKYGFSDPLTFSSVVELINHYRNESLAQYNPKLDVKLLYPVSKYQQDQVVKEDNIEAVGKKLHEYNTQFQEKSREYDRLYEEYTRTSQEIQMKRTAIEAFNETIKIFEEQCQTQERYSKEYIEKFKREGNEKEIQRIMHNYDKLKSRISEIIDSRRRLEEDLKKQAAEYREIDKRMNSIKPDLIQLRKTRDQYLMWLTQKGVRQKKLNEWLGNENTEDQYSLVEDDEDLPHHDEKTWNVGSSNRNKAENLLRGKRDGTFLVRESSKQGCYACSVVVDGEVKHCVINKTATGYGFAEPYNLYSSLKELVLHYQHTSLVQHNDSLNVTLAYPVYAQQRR

As to `O=C(Nc1cccc(-c2nc(-c3cccc(O)c3)cc(N3CCOCC3)n2)c1)C1CCNCC1` [Example 4(3), 4-(3-hydroxyphenyl)-6-morpholino-2-(3-piperidin-4-ylcarbonylaminophenyl)pyrimidine], in assay [1], the IC50 (in general, the concentration at which inhibition is half-maximal) is about 1000 nM.

For `NCc1cccc(C(=O)Nc2cccc(-c3nc(-c4cccc(CO)c4)cc(N4CCOCC4)n3)c2)c1` [Example 6(48), 2-[3-(3-aminomethylbenzamido)phenyl]-4-(3-hydroxymethylphenyl)-6-morpholinopyrimidine], the IC50 is about 1000 nM in assay [1], about 1800 nM in assay [2] and about 5000 nM in assay [3].

With `N[C@H]1CCC[C@@H](CC(=O)Nc2cccc(-c3nc(-c4cccc(CO)c4)cc(N4CCOCC4)n3)c2)C1` [Example 6(33), 2-(3-{2-[(1R,3S)-3-aminocyclohex-1-yl]acetamido]phenyl}-4-(3-hydroxymethylphenyl)-6-morpholinopyrimidine], the IC50 was about 700 nM in assay [1], about 5100 nM in assay [2] and about 10000 nM in assay [3].
